# Article PMC10557102 (Pharmacology Research & Perspectives, 2023)
# “And” between values parts separate entries of the source, which are not always exact repeats. Identical values can stand only once. Like-named read-outs stand apart in the source and are kept apart here.
# What was measured:
# CYP3A4 [1] = target: T1, CYP3A4 (Homo sapiens, UniProt P08684); experiment: Cocktail DDI study: PK of midazolam and 1-OH midazolam with/without nivasorexant; details: for t max: median (range); for t max median difference B–A / t max median difference D–A: median difference (90% CI); for t ½ ratio Trt B/Trt A / t ½ ratio Trt D/Trt A / AUC0–24 ratio Trt B/Trt A / C max ratio Trt B/Trt A / AUC0–24 ratio Trt D/Trt A / C max ratio Trt D/Trt A: ratio of geometric means (90% CI); for AUC0–24 ratio Trt B/Trt A / C max ratio Trt B/Trt A: initial nivasorexant dose vs cocktail alone; for AUC0–24 ratio Trt D/Trt A / C max ratio Trt D/Trt A: nivasorexant steady state vs cocktail alone; for AUC(0-t) / half-life: both, human, plasma, oral; for half-life: t ½
# T1 sequence (P08684 whole entry): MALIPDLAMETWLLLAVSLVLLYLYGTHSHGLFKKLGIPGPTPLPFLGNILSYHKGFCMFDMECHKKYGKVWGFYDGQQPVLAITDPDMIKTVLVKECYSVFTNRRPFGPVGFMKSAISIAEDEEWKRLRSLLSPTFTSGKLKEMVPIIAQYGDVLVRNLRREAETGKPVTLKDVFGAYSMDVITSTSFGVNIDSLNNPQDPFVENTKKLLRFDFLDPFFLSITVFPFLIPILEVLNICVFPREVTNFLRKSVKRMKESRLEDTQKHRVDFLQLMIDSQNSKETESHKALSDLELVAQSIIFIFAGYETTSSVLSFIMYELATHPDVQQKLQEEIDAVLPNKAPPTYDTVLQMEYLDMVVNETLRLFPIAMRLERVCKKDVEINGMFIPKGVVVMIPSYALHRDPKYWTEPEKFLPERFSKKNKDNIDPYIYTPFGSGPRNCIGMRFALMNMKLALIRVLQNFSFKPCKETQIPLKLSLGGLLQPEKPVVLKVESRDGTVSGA
# CYP2C9 [2] = details: for t max: median (range); for t max median difference B–A / t max median difference D–A: median difference (90% CI); for t ½ ratio Trt B/Trt A / t ½ ratio Trt D/Trt A / AUC0–24 ratio Trt B/Trt A / C max ratio Trt B/Trt A / AUC0–24 ratio Trt D/Trt A / C max ratio Trt D/Trt A: ratio of geometric means (90% CI); for AUC0–24 ratio Trt B/Trt A / C max ratio Trt B/Trt A: initial nivasorexant dose vs cocktail alone; for AUC0–24 ratio Trt D/Trt A / C max ratio Trt D/Trt A: nivasorexant steady state vs cocktail alone; for half-life: t ½
# CYP2C19 [3] = target: T2, CYP2C19 (Homo sapiens, UniProt P33261); details: for C max / AUC0–24 / t ½: geometric mean (95% CI); for t max: median (range); for t max median difference B–A / t max median difference D–A: median difference (90% CI); for AUC0–24 ratio Trt B/Trt A / C max ratio Trt B/Trt A: initial nivasorexant dose vs cocktail alone
# T2 sequence (P33261 whole entry): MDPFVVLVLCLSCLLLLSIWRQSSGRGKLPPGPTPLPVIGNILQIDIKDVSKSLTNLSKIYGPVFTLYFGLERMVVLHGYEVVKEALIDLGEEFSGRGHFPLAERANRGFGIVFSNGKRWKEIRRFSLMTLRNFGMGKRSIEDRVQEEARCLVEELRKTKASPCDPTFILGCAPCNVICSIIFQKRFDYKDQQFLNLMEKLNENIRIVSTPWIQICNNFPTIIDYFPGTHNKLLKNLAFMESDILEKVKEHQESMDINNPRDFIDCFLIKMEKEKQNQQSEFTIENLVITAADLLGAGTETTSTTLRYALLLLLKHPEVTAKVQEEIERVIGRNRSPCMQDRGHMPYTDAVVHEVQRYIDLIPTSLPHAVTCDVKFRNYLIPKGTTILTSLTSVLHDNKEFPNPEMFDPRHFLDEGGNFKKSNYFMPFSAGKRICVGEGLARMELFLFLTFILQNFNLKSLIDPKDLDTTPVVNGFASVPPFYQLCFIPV
# CYP2C9 [4] = target: CYP2C9 (Homo sapiens, UniProt P11712); details: with flurbiprofen, tolbutamide, and warfarin; cited from earlier work
# Chain of CYP2C9 (Homo sapiens, UniProt P11712) (P11712 whole entry): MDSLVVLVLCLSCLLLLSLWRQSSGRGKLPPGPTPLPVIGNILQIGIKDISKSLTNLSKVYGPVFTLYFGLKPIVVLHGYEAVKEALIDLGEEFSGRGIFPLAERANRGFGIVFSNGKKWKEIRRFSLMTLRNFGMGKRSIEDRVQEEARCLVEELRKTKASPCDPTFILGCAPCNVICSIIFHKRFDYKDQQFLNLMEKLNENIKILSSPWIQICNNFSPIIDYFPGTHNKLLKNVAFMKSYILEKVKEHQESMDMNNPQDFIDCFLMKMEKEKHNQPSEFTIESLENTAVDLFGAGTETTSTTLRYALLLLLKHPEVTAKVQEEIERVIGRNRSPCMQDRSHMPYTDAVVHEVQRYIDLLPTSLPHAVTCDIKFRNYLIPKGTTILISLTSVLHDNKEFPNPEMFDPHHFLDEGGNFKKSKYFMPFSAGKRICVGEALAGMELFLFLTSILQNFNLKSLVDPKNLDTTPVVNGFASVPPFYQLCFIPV
# healthy subjects = experiment: Safety and tolerability in the clinical study; details: Day 1 to Day 15, healthy subjects
# CYP2C19 [5] = details: 25 mg b.i.d. for 6 days; cited from earlier work
# CYP3A4 [6] = target: T1, CYP3A4; details: cited from earlier work
# CYP2C19 [7] = target: T2, CYP2C19; experiment: clinical; details: both, in vivo; for AUC(0-t) / half-life: geometric mean (95% CI); for half-life: t ½
# [8] = Trt A, Day 1, cocktail alone, geometric mean (95% CI)
# [9] = Trt B, Day 8, cocktail + initial 100 mg nivasorexant, geometric mean (95% CI)
# [10] = Trt B, Day 8, cocktail + initial 100 mg nivasorexant
# [11] = Trt D, Day 15, cocktail + nivasorexant at steady state, geometric mean (95% CI)
# [12] = Trt D, Day 15, cocktail + nivasorexant at steady state
# [13] = ratio of geometric means (90% CI)
# [14] = ratio of geometric means (90% CI), nivasorexant steady state vs cocktail alone
compound,measurement,setting,value
"OCc1ncc2n1-c1ccc(Cl)cc1C(c1ccccc1F)=NC2 [1‐OH midazolam, 1‐hydroxy (OH) midazolam]",AUC0–24,CYP3A4 [1]; [8],8.50 (7.23–10.00) ng*h/mL
same,t ½,CYP3A4 [1]; [8],2.27 (1.58–3.25) h
same,t max,"CYP3A4 [1]; Trt A, Day 1, cocktail alone",0.50 (0.50–3.00) h
same,AUC0–24,CYP3A4 [1]; [9],8.64 (7.37–10.13) ng*h/mL
same,C max,CYP3A4 [1]; [9],4.12 (3.53–4.82) ng/mL
same,t ½,CYP3A4 [1]; [9],2.94 (2.04–4.22) h
same,t max,CYP3A4 [1]; [10],0.75 (0.50–1.50) h
same,AUC0–24,CYP3A4 [1]; [11],9.88 (8.02–12.18) ng*h/mL
same,t ½,CYP3A4 [1]; [11],9.04 (6.82–11.97) h
same,t max,CYP3A4 [1]; [12],0.50 (0.50–1.50) h
same,t max median difference B–A,CYP3A4 [1],0.00 (0.000–0.13) h
same,t max median difference D–A,CYP3A4 [1],0.00 (−0.13–0.13) h
same,t ½ ratio Trt B/Trt A,CYP3A4 [1],1.29 [1.03–1.62]
same,t ½ ratio Trt D/Trt A,CYP3A4 [1],3.05 (2.03–4.58)
same,AUC0–24 ratio Trt B/Trt A,CYP3A4 [1],1.02 (0.96–1.08)
same,C max ratio Trt B/Trt A,CYP3A4 [1],1.02 (0.91–1.15)
same,t ½ ratio Trt B/Trt A,CYP3A4 [1]; listed as 1‐OH Midazolam,1.29 (1.03–1.62)
same,AUC0–24 ratio Trt D/Trt A,CYP3A4 [1],1.15 (1.06–1.24)
same,C max ratio Trt D/Trt A,CYP3A4 [1],0.86 (0.75–0.98)
"CC(C(=O)O)c1ccc(-c2ccc(O)cc2)c(F)c1 (stereo not shown) [4‐OH flurbiprofen, 4‐hydroxyflurbiprofen]",C max,"CYP2C9 [2]; Trt A, Day 1, cocktail alone (flurbiprofen 50 mg), geometric mean (95% CI)",316 (278–359) ng/mL
same,AUC0–24,CYP2C9 [2]; [8],2516 (2280–2778) ng*h/mL
same,t ½,CYP2C9 [2]; [8],7.85 (7.04–8.75) h
same,t max,"CYP2C9 [2]; Trt A, Day 1, cocktail alone",3.00 (1.50–6.00) h
same,AUC0–24,CYP2C9 [2]; [9],2366 (2138–2618) ng*h/mL
same,C max,CYP2C9 [2]; [9],289 (259–322) ng/mL
same,t ½,CYP2C9 [2]; [9],8.03 (7.28–8.87) h
same,t max,CYP2C9 [2]; [10],3.00 (1.50–6.02) h
same,AUC0–24,CYP2C9 [2]; [11],1924 (1763–2099) ng*h/mL
same,t ½,CYP2C9 [2]; [11],12.0 (10.0–14.3) h
same,t max,CYP2C9 [2]; [12],3.00 (1.50–6.00) h
same,t max median difference B–A,CYP2C9 [2],0.74 (−0.02–1.50) h
same,t max median difference D–A,CYP2C9 [2],0.50 (−0.04–1.00) h
same,t ½ ratio Trt B/Trt A,CYP2C9 [2],1.02 (0.97–1.09)
same,t ½ ratio Trt D/Trt A,CYP2C9 [2],1.54 (1.39–1.70)
same,AUC0–24 ratio Trt B/Trt A,CYP2C9 [2],0.94 (0.90–0.98)
same,C max ratio Trt B/Trt A,CYP2C9 [2],0.91 (0.87–0.96)
same,AUC0–24 ratio Trt D/Trt A,CYP2C9 [2],0.74 (0.70–0.79)
same,C max ratio Trt D/Trt A,CYP2C9 [2],0.53 (0.49–0.59)
COc1ccc2nc([S+]([O-])Cc3ncc(CO)c(OC)c3C)[nH]c2c1 (stereo not shown) [5‐OH omeprazole],C max,"CYP2C19 [3]; Trt A, Day 1, cocktail alone (omeprazole 20 mg)",129 (110–151) ng/mL
same,AUC0–24,"CYP2C19 [3]; Trt A, Day 1, cocktail alone",367 (332–406) ng*h/mL
same,t ½,"CYP2C19 [3]; Trt A, Day 1, cocktail alone",1.34 (1.20–1.49) h
same,t max,"CYP2C19 [3]; Trt A, Day 1, cocktail alone",3.00 (1.00–6.00) h
same,AUC0–24,CYP2C19 [3]; [10],338 (314–363) ng*h/mL
same,C max,CYP2C19 [3]; [10],97.0 (85.0–110.7) ng/mL
same,t ½,CYP2C19 [3]; [10],1.53 (1.30–1.80) h
same,t max,CYP2C19 [3]; [10],3.49 (1.50–6.02) h
same,AUC0–24,CYP2C19 [3]; [12],278 (253–305) ng*h/mL
same,t ½,CYP2C19 [3]; [12],2.03 (1.79–2.32) h
same,t max,CYP2C19 [3]; [12],4.00 (1.50–10.00) h
same,t max median difference B–A,CYP2C19 [3],0.50 (0.00–1.16) h
same,t max median difference D–A,CYP2C19 [3],1.25 (0.75–2.00) h
same,t ½ ratio Trt B/Trt A,CYP2C19 [3]; [13],1.14 (0.99–1.32)
same,t ½ ratio Trt D/Trt A,CYP2C19 [3]; [13],1.50 (1.36–1.66)
same,AUC0–24 ratio Trt B/Trt A,CYP2C19 [3]; [13],0.92 (0.85–1.00)
same,C max ratio Trt B/Trt A,CYP2C19 [3]; [13],0.75 (0.66–0.86)
same,AUC0–24 ratio Trt D/Trt A,CYP2C19 [3]; [14],0.74 (0.67–0.82)
OC(Cn1cncn1)(Cn1cncn1)c1ccc(F)cc1F [fluconazole],increase in AUC ratio of CYP2C9 probe substrates,CYP2C9 [4],approximately two‐fold
CC(C(=O)O)c1ccc(-c2ccccc2)c(F)c1 (stereo not shown) [flurbiprofen],safety and tolerability (in words),healthy subjects,safe and well tolerated
same,Cmax,"CYP2C9 [2]; both, human, in vivo, 50 mg, C max, Trt A, Day 1, cocktail alone (flurbiprofen 50 mg), geometric mean (95% CI)",6410 ng/mL
same,t max,"CYP2C9 [2]; both, human, in vivo, t max, Trt A, Day 1, cocktail alone",2 h
same,t max,"CYP2C9 [2]; both, human, in vivo, t max, Trt D, Day 15, cocktail + nivasorexant at steady state",2.5 h
same,half-life,"CYP2C9 [2]; both, human, in vivo, Trt A, Day 1, cocktail alone, geometric mean (95% CI)",5.73 h
same,half-life,"CYP2C9 [2]; both, human, in vivo, Trt D, Day 15, cocktail + nivasorexant at steady state, geometric mean (95% CI)",7.89 h
same,t max median difference B–A,CYP2C9 [2],0.75 (0.00–1.51) h
same,t max median difference D–A,CYP2C9 [2],0.50 (−0.13–1.16) h
same,t ½ ratio Trt B/Trt A,CYP2C9 [2],1.11 (1.07–1.15)
same,t ½ ratio Trt D/Trt A,CYP2C9 [2],1.39 (1.31–1.47)
same,AUC0–24 ratio Trt B/Trt A,CYP2C9 [2],1.04
same,C max ratio Trt B/Trt A,CYP2C9 [2],0.97 (0.86–1.08)
same,AUC0–24 ratio Trt D/Trt A,CYP2C9 [2],1.47 and 1.5
same,C max ratio Trt D/Trt A,CYP2C9 [2],1.08 (0.97–1.20)
COCCCC/C(=N\OCCN)c1ccc(C(F)(F)F)cc1 [fluvoxamine],increase in omeprazole exposure,CYP2C19 [5],5.6 fold
Cc1ncc2n1-c1ccc(Cl)cc1C(c1ccccc1F)=NC2 [midazolam],safety and tolerability (in words),healthy subjects,safe and well tolerated
same,increase in midazolam AUC,CYP3A4 [6]; initial b.i.d. dosing with 200 mg nivasorexant,1.8 fold
same,increase in midazolam AUC,CYP3A4 [6]; repeated b.i.d. dosing (over 10 days) with 200 mg nivasorexant,4.5 fold
same,t max,"CYP3A4 [1]; Trt A, Day 1, cocktail alone",0.75 (0.50–3.00) h
same,AUC0–24,CYP3A4 [1]; [9],22.7 (19.5–26.5) ng*h/mL
same,AUC(0-t),"CYP3A4 [1]; AUC0–24, Trt A, Day 1, cocktail alone, geometric mean (95% CI)",14.6 ng·h/mL
same,AUC(0-t),"CYP3A4 [1]; AUC0–24, Trt D, Day 15, cocktail + nivasorexant at steady state, geometric mean (95% CI)",54.8 ng·h/mL
same,half-life,CYP3A4 [1]; [8],4.94 h
same,half-life,CYP3A4 [1]; [11],6.75 h
same,t max median difference B–A,CYP3A4 [1],0.00 (−0.13–0.13) h
same,t max median difference D–A,CYP3A4 [1],0.00 (−0.13–0.13) h
same,t ½ ratio Trt B/Trt A,CYP3A4 [1],1.67 (1.38–2.01)
same,t ½ ratio Trt D/Trt A,CYP3A4 [1],1.25 (1.07–1.46)
same,AUC0–24 ratio Trt B/Trt A,CYP3A4 [1],1.56 and 1.6
same,C max ratio Trt B/Trt A,CYP3A4 [1],1.34 (1.22–1.46)
same,AUC0–24 ratio Trt D/Trt A,CYP3A4 [1],3.71 and 3.7
same,C max ratio Trt D/Trt A,CYP3A4 [1],2.62 (2.31–2.97)
COc1ccc2[nH]c([S+]([O-])Cc3ncc(C)c(OC)c3C)nc2c1 (stereo not shown) [omeprazole],Cmax,CYP2C19 [7]; 20 mg,162 ng/mL
same,AUC(0-t),"CYP2C19 [7]; AUC0–24, Trt A, Day 1, cocktail alone",372 ng·h/mL
same,AUC(0-t),"CYP2C19 [7]; AUC0–24, Trt D, Day 15, cocktail + nivasorexant at steady state",2670 ng·h/mL
same,half-life,"CYP2C19 [7]; Trt A, Day 1, cocktail alone",0.99 h
same,half-life,CYP2C19 [7]; [12],1.99 h
same,safety and tolerability (in words),healthy subjects,safe and well tolerated
same,t max,"CYP2C19 [3]; Trt A, Day 1, cocktail alone",3.00 (1.00–6.00) h
same,t max median difference B–A,CYP2C19 [3],0.5 h
same,t max median difference D–A,CYP2C19 [3],1.00 h
same,t max median difference B–A,CYP2C19 [3]; listed as Omeprazole,0.50 (0.00–1.49) h
same,t max median difference D–A,CYP2C19 [3]; listed as Omeprazole,1.00 (0.50–1.75) h
same,t ½ ratio Trt B/Trt A,CYP2C19 [3]; [13],1.46 (1.24–1.72)
same,t ½ ratio Trt D/Trt A,CYP2C19 [3]; [13],2.01 (1.69–2.40)
same,AUC0–24 ratio Trt B/Trt A,CYP2C19 [3]; [13],2.05 and 2.1
same,C max ratio Trt B/Trt A,CYP2C19 [3]; [13],1.60 (1.30–1.97)
same,AUC0–24 ratio Trt D/Trt A,CYP2C19 [3]; [14],6.84 and 6.8
same,C max ratio Trt D/Trt A,CYP2C19 [3]; [14],3.31 (2.55–4.28)
